Experimental data taken from patent US10266609B2, “Immunomodulating beta-1,6-D-glucans” (Innate Biotherapeutics, LLC, priority 2014, dated 2019).

Tested on: Anti-β-1,6-Glucan IgG antibodies (affinity purified from IVIG, Baxter)
Test: ELISA: binding of oligosaccharides to anti-β-1,6-glucan antibodies; further: key: a plus (+) sign indicates that the glucan was active in the assay; a minus (−) sign indicates that the glucan was not active; the '+/−' symbol indicates inconclusive results
Conditions: plate coated with oligosaccharide in PBS; 40 ug/mL anti-Beta 1,6 Glucan IgG; anti-human IgG-HRP, TMB, absorbance at 620 nm
Procedure: Binding of oligosaccharides to anti-β-1,6-glucan antibodies is performed as described in the following protocol.
• 1. […] Anti-β-1,6-Glucan IgG antibodies (affinity purified from IVIG, Baxter) • 6. […] PBS-Tween buffer (PH 7.2, 0.05% Tween 20, Kpl cat #51-12-01) II. Method: Detection of Anti-Beta Glucan IgG by ELISA • 1. Coat plate with oligosaccharides in PBS overnight at 4° C. • 2. Wash 3 times with 250 uL of PBS-Tween • 3. Empty plate • 4. Block plate with 200 uL of Casein for 1 hour at room temperature • 5. Empty plate • 6. Add 40 ug/mL anti-Beta 1,6 Glucan IgG (4 ug/well) in Casein • 7. Incubate for 45 min at room temperature • 8. Wash 3 times with 250 uL of PBS-Tween • 9. Empty plate • 10. Add detection antibody: anti-human IgG-HRP at 1:5000—in casein. Incubate for 45 min at room temperature in the dark • 11. Wash 5 times with 250 uL of PBS-Tween • 12. Empty plate • 13. Add 100 uL of one step ultra TMB • 14. Measure the absorbance at 620 nm every 1 min for 60 min Tables 1-3 provide ELISA assay data for certain glucan compounds.

ELISA assay data: glucan active in detection of anti-beta glucan IgG	Structure (SMILES)
+	OCC1OC(OCC2OC(OCC3OC(OCC4OC(OCC5OC(OCC6OC(OCC7OC(OCC8OC(OCC9OC(O)C(O)C(O)C9O)C(O)C(O)C8O)C(O)C(O)C7O)C(O)C(O)C6O)C(O)C(O)C5O)C(O)C(O)C4O)C(O)C(O)C3O)C(O)C(O)C2O)C(O)C(O)C1O (stereo not shown) [OH, n=9]
+	OC[C@H]1O[C@@H](OC[C@H]2O[C@@H](OC[C@H]3O[C@@H](OC[C@H]4O[C@@H](OC[C@H]5O[C@@H](OC[C@H]6O[C@@H](OC[C@H]7O[C@@H](OC[C@H]8O[C@@H](OC[C@H]9O[C@@H](OC[C@H]%10OC(O)[C@H](O)[C@@H](O)[C@@H]%10O)[C@H](O)[C@@H](O)[C@@H]9O)[C@H](O)[C@@H](O)[C@@H]8O)[C@H](O)[C@@H](O)[C@@H]7O)[C@H](O)[C@@H](O)[C@@H]6O)[C@H](O)[C@@H](O)[C@@H]5O)[C@H](O)[C@@H](O)[C@@H]4O)[C@H](O)[C@@H](O)[C@@H]3O)[C@H](O)[C@@H](O)[C@@H]2O)[C@H](O)[C@@H](O)[C@@H]1O (stereo partly drawn) [OH, n=10, [O-β-D-glucopyranosyl-1,6-]9-D-glucose]
+	OC[C@H]1O[C@@H](OC[C@H]2O[C@@H](OC[C@H]3O[C@@H](OC[C@H]4O[C@@H](OC[C@H]5O[C@@H](OC[C@H]6O[C@@H](OC[C@H]7O[C@@H](OC[C@H]8O[C@@H](OC[C@H]9O[C@@H](OC[C@H]%10O[C@@H](OC[C@H]%11OC(O)[C@H](O)[C@@H](O)[C@@H]%11O)[C@H](O)[C@@H](O)[C@@H]%10O)[C@H](O)[C@@H](O)[C@@H]9O)[C@H](O)[C@@H](O)[C@@H]8O)[C@H](O)[C@@H](O)[C@@H]7O)[C@H](O)[C@@H](O)[C@@H]6O)[C@H](O)[C@@H](O)[C@@H]5O)[C@H](O)[C@@H](O)[C@@H]4O)[C@H](O)[C@@H](O)[C@@H]3O)[C@H](O)[C@@H](O)[C@@H]2O)[C@H](O)[C@@H](O)[C@@H]1O (stereo partly drawn) [OH, n=11, [O-β-D-glucopyranosyl-1,6]10-D-glucose]
+	OC[C@H]1O[C@@H](OC[C@H]2O[C@@H](OC[C@H]3O[C@@H](OC[C@H]4O[C@@H](OC[C@H]5O[C@@H](OC[C@H]6O[C@@H](OC[C@H]7O[C@@H](OC[C@H]8O[C@@H](OC[C@H]9O[C@@H](OC[C@H]%10O[C@@H](OC[C@H]%11O[C@@H](OC[C@H]%12OC(O)[C@H](O)[C@@H](O)[C@@H]%12O)[C@H](O)[C@@H](O)[C@@H]%11O)[C@H](O)[C@@H](O)[C@@H]%10O)[C@H](O)[C@@H](O)[C@@H]9O)[C@H](O)[C@@H](O)[C@@H]8O)[C@H](O)[C@@H](O)[C@@H]7O)[C@H](O)[C@@H](O)[C@@H]6O)[C@H](O)[C@@H](O)[C@@H]5O)[C@H](O)[C@@H](O)[C@@H]4O)[C@H](O)[C@@H](O)[C@@H]3O)[C@H](O)[C@@H](O)[C@@H]2O)[C@H](O)[C@@H](O)[C@@H]1O (stereo partly drawn) [OH, n=12, [O-β-D-glucopyranosyl-1,6-]11-D-glucose]
+	OC[C@H]1O[C@@H](OC[C@H]2O[C@@H](OC[C@H]3OC(OCCCl)[C@H](O)[C@@H](O)[C@@H]3O)[C@H](O)[C@@H](O)[C@@H]2O)[C@H](O)[C@@H](O)[C@@H]1O (stereo partly drawn) [α-O(CH2)2Cl, n=3, 2-chloroethyl [O-β-D-glucopyranosyl-1,6]2-D-glucopyranoside]
+	OC[C@H]1O[C@@H](OC[C@H]2O[C@@H](OC[C@H]3O[C@@H](OC[C@H]4OC(OCCCl)[C@H](O)[C@@H](O)[C@@H]4O)[C@H](O)[C@@H](O)[C@@H]3O)[C@H](O)[C@@H](O)[C@@H]2O)[C@H](O)[C@@H](O)[C@@H]1O (stereo partly drawn) [α-O(CH2)2Cl, n=4, 2-chloroethyl [O-β-D-glucopyranosyl-1,6]3-D-glucopyranoside]
+	OC[C@H]1O[C@@H](OC[C@H]2O[C@@H](OC[C@H]3O[C@@H](OC[C@H]4O[C@@H](OC[C@H]5O[C@H](OCCCl)[C@H](O)[C@@H](O)[C@@H]5O)[C@H](O)[C@@H](O)[C@@H]4O)[C@H](O)[C@@H](O)[C@@H]3O)[C@H](O)[C@@H](O)[C@@H]2O)[C@H](O)[C@@H](O)[C@@H]1O [α-O(CH2)2Cl, n=5, 2-chloroethyl [O-β-D-glucopyranosyl-1,6]4-D-glucopyranoside]
+	OC[C@H]1O[C@@H](OC[C@H]2O[C@@H](OC[C@H]3O[C@@H](OC[C@H]4O[C@@H](OC[C@H]5O[C@@H](OC[C@H]6OC(OCCCl)[C@H](O)[C@@H](O)[C@@H]6O)[C@H](O)[C@@H](O)[C@@H]5O)[C@H](O)[C@@H](O)[C@@H]4O)[C@H](O)[C@@H](O)[C@@H]3O)[C@H](O)[C@@H](O)[C@@H]2O)[C@H](O)[C@@H](O)[C@@H]1O (stereo partly drawn) [α-O(CH2)2Cl, n=6, 2-chloroethyl [O-β-D-glucopyranosyl-1,6]5-D-glucopyranoside]
+	OC[C@H]1O[C@@H](OC[C@H]2O[C@@H](OC[C@H]3O[C@@H](OC[C@H]4O[C@@H](OC[C@H]5O[C@@H](OC[C@H]6O[C@@H](OC[C@H]7OC(OCCCl)[C@H](O)[C@@H](O)[C@@H]7O)[C@H](O)[C@@H](O)[C@@H]6O)[C@H](O)[C@@H](O)[C@@H]5O)[C@H](O)[C@@H](O)[C@@H]4O)[C@H](O)[C@@H](O)[C@@H]3O)[C@H](O)[C@@H](O)[C@@H]2O)[C@H](O)[C@@H](O)[C@@H]1O (stereo partly drawn) [α-O(CH2)2Cl, n=7, 2-chloroethyl [O-β-D-glucopyranosyl-1,6]6-D-glucopyranoside]
+	OC[C@H]1O[C@@H](OC[C@H]2O[C@@H](OC[C@H]3O[C@@H](OC[C@H]4O[C@@H](OC[C@H]5O[C@@H](OC[C@H]6O[C@@H](OC[C@H]7O[C@@H](OC[C@H]8O[C@H](OCCCl)[C@H](O)[C@@H](O)[C@@H]8O)[C@H](O)[C@@H](O)[C@@H]7O)[C@H](O)[C@@H](O)[C@@H]6O)[C@H](O)[C@@H](O)[C@@H]5O)[C@H](O)[C@@H](O)[C@@H]4O)[C@H](O)[C@@H](O)[C@@H]3O)[C@H](O)[C@@H](O)[C@@H]2O)[C@H](O)[C@@H](O)[C@@H]1O [α-O(CH2)2Cl, n=8, 2-chloroethyl [O-β-D-glucopyranosyl-1,6]7-D-glucopyranoside]
+	OC[C@H]1O[C@@H](OC[C@H]2O[C@@H](OC[C@H]3O[C@@H](OC[C@H]4O[C@@H](OC[C@H]5O[C@@H](OC[C@H]6O[C@@H](OC[C@H]7O[C@@H](OC[C@H]8O[C@@H](OC[C@H]9OC(OCCCl)[C@H](O)[C@@H](O)[C@@H]9O)[C@H](O)[C@@H](O)[C@@H]8O)[C@H](O)[C@@H](O)[C@@H]7O)[C@H](O)[C@@H](O)[C@@H]6O)[C@H](O)[C@@H](O)[C@@H]5O)[C@H](O)[C@@H](O)[C@@H]4O)[C@H](O)[C@@H](O)[C@@H]3O)[C@H](O)[C@@H](O)[C@@H]2O)[C@H](O)[C@@H](O)[C@@H]1O (stereo partly drawn) [α-O(CH2)2Cl, n=9, 2-chloroethyl [O-β-D-glucopyranosyl-1,6]8-D-glucopyranoside]
+	[N-]=[N+]=NCCOC1OC(COC2OC(COC3OC(CO)C(O)C(O)C3O)C(O)C(O)C2O)C(O)C(O)C1O (stereo not drawn) [α-O(CH2)2N3, n=3]
+	[N-]=[N+]=NCCO[C@H]1O[C@H](CO[C@@H]2O[C@H](CO[C@@H]3O[C@H](CO[C@@H]4O[C@H](CO)[C@@H](O)[C@H](O)[C@H]4O)[C@@H](O)[C@H](O)[C@H]3O)[C@@H](O)[C@H](O)[C@H]2O)[C@@H](O)[C@H](O)[C@H]1O [α-O(CH2)2N3, n=4, 1-O-(2-azidoethyl)-6-[O-β-D-glucopyranosyl-1,6]3-α-D-glucopyranoside]
+	[N-]=[N+]=NCCOC1OC(COC2OC(COC3OC(COC4OC(COC5OC(CO)C(O)C(O)C5O)C(O)C(O)C4O)C(O)C(O)C3O)C(O)C(O)C2O)C(O)C(O)C1O (stereo not drawn) [α-O(CH2)2N3, n=5]
+	[N-]=[N+]=NCCOC1OC(COC2OC(COC3OC(COC4OC(COC5OC(COC6OC(CO)C(O)C(O)C6O)C(O)C(O)C5O)C(O)C(O)C4O)C(O)C(O)C3O)C(O)C(O)C2O)C(O)C(O)C1O (stereo not drawn) [α-O(CH2)2N3, n=6]
+	[N-]=[N+]=NCCOC1OC(COC2OC(COC3OC(COC4OC(COC5OC(COC6OC(COC7OC(CO)C(O)C(O)C7O)C(O)C(O)C6O)C(O)C(O)C5O)C(O)C(O)C4O)C(O)C(O)C3O)C(O)C(O)C2O)C(O)C(O)C1O (stereo not drawn) [α-O(CH2)2N3, n=7]
+	[N-]=[N+]=NCCOC1OC(COC2OC(COC3OC(COC4OC(COC5OC(COC6OC(COC7OC(COC8OC(CO)C(O)C(O)C8O)C(O)C(O)C7O)C(O)C(O)C6O)C(O)C(O)C5O)C(O)C(O)C4O)C(O)C(O)C3O)C(O)C(O)C2O)C(O)C(O)C1O (stereo not drawn) [α-O(CH2)2N3, n=8]
+	[N-]=[N+]=NCCOC1OC(COC2OC(COC3OC(COC4OC(COC5OC(COC6OC(COC7OC(COC8OC(COC9OC(CO)C(O)C(O)C9O)C(O)C(O)C8O)C(O)C(O)C7O)C(O)C(O)C6O)C(O)C(O)C5O)C(O)C(O)C4O)C(O)C(O)C3O)C(O)C(O)C2O)C(O)C(O)C1O (stereo not drawn) [α-O(CH2)2N3, n=9]
+	[N-]=[N+]=NCCO[C@@H]1O[C@H](CO[C@@H]2O[C@H](CO[C@@H]3O[C@H](CO[C@@H]4O[C@H](CO[C@@H]5O[C@H](CO)[C@@H](O)[C@H](O)[C@H]5O)[C@@H](O)[C@H](O)[C@H]4O)[C@@H](O)[C@H](O)[C@H]3O)[C@@H](O)[C@H](O)[C@H]2O)[C@@H](O)[C@H](O)[C@H]1O [β-O(CH2)2N3, n=5, 2-azidoethyl [O-β-D-glucopyranosyl-1,6]4-β-D-glucopyranoside]
